This note sets out measurements from BindingDB's records for doi:10.1080/14756360109162353 (Cardiff University, 2001).

Broadly, the IC50 is the point on the concentration scale where inhibition reaches its midpoint. A lower IC50 goes with greater potency in that assay.

Structures are written as SMILES. Values joined by “and” are separate entries in the source; they are usually repeats but may differ in a detail not shown here. Equal values may be shown once.

The assay has as its target T1, 17-beta-hydroxysteroid dehydrogenase type 3 (Homo sapiens, UniProt P37058).
T1 sequence (P37058 whole entry): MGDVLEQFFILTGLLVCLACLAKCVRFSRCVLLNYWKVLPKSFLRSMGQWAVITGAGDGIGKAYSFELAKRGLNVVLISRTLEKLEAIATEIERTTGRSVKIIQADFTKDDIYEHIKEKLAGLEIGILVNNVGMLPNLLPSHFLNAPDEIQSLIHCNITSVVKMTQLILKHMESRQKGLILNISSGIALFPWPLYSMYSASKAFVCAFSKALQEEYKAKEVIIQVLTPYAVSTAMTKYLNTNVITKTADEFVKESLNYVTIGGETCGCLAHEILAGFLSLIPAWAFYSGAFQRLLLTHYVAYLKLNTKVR
Put plainly: Inhibition Assay. Conditions: pH 7.45; 37 °C. From the text:
Inhibition assay of human testes mcrosomal 17 beta-hydroxysteroid dehydrogenase for the reduction of androstenedione.
As for `COc1ccc(-c2coc3cc(O)cc(O)c3c2=O)cc1` [5,7-dihydroxy-3-(4-methoxyphenyl)-4H-chromen-4-one], the midpoint of inhibition, the IC50, lay at 10.8 µM.
For `O=c1cc(-c2ccc(O)cc2)oc2cc(O)cc(O)c12` [Naringenin, 18], the IC50 is 21.3 µM and 16.4 µM.
With `O=c1c(-c2ccc(O)cc2)coc2cc(O)cc(O)c12` [Prunetol], the half-inhibitory concentration (IC50) is 30.3 µM.
In the case of `O=c1cc(-c2ccccc2)oc2ccc(O)cc12` [6-hydroxy-2-phenyl-4H-chromen-4-one] it was 16.4 µM; in that of `CCN(CC)CCOc1ccc(/C(=C(\Cl)c2ccccc2)c2ccccc2)cc1` [2-[4-[(Z)-2-chloranyl-1,2-diphenyl-ethenyl]phenoxy]-N,N-diethyl-ethanamine;2-oxidanylpropane-1,2,3-tricarboxylic acid], 76.2 µM; in that of `C#CCC1(C(=O)OC(=C(c2ccccc2)c2ccccc2)c2ccccc2)CC(=O)NC1=O` (stereo not drawn) [17Beta-HSD Inhibitor, 3], 9.15 µM.
In the case of `Oc1ccc(O)c(-c2ccccc2)c1` [2-Phenylhydroquinone, 7] it was 14.8 µM; in that of `O=c1c(O)c(-c2cc(O)c(O)c(O)c2)oc2cc(O)cc(O)c12`, 100 µM; in that of `O=C1C=CC(=O)C(c2ccccc2)=C1` [2-phenylcyclohexa-2,5-diene-1,4-dione], 5.7 µM.
In the case of `O=c1c(O)c(-c2ccc(O)c(O)c2)oc2cc(O)ccc12` [2-(3,4-dihydroxyphenyl)-3,7-dihydroxy-chromen-4-one] it was 32.4 µM.
